Test system: PMPMEase
Assay: Inhibition of PMPMEase by drugs, curcumin, fatty acids and prostaglandins
Format: biochemical
Conditions: for concentrations at which PMPMEase is inhibited: concentration range stated in words only

| SMILES | concentrations at which PMPMEase is inhibited | also measured |
| --- | --- | --- |
| CCCCC[C@H](O)/C=C/[C@H]1[C@H](O)CC(=O)[C@@H]1C/C=C\CCCC(=O)O [PGE2] | – | inhibition of PMPMEase at 1 mM (1 mM): did not inhibit |
| CCCCC[C@H](O)/C=C/[C@H]1C=CC(=O)[C@@H]1C/C=C\CCCC(=O)O [Prostaglandin (PG) A2] | – | fold less potent than AA as PMPMEase inhibitor (relative to arachidonic acid (AA)): 63 fold |
| CCCCC/C=C\C/C=C\C/C=C\C/C=C\CCCC(=O)O [arachidonic acid] | micromolar concentrations | – |
| COc1cc(/C=C/C(=O)CC(=O)/C=C/c2ccc(O)c(OC)c2)ccc1O [curcumin] | micromolar concentrations | – |
| O=P1(N(CCCl)CCCl)NCCCO1 (stereo not drawn) [cyclophosphamide] | millimolar concentrations | – |
| CC/C(=C(\c1ccccc1)c1ccc(OCCN(C)C)cc1)c1ccccc1 [tamoxifen] | millimolar concentrations | – |

— patent publication US8592173B2, “Cancer diagnosis by measuring polyisoprenylated methylated protein methyl esterase activity” (Florida Agricultural and Mechanical University, priority 2011, dated 2013)
